Measured values reported in ChEMBL document CHEMBL1821555, “Identification of a series of 4-[3-(quinolin-2-yl)-1,2,4-oxadiazol-5-yl]piperazinyl ureas as potent smoothened antagonist hedgehog pathway inhibitors” (Bioorg Med Chem Lett, 2011).

Legend:
Protein smoothened [1] = biological target: T1, Protein smoothened (Homo sapiens, UniProt Q99835); experiment: Displacement of Bodipy-labelled cyclopamine from Smo expressed in COS-1 cells in presence of 2% FBS after 4 to 6 hrs by FACS flow cytometric analysis; format: cell-based
T1 sequence (Q99835 whole entry): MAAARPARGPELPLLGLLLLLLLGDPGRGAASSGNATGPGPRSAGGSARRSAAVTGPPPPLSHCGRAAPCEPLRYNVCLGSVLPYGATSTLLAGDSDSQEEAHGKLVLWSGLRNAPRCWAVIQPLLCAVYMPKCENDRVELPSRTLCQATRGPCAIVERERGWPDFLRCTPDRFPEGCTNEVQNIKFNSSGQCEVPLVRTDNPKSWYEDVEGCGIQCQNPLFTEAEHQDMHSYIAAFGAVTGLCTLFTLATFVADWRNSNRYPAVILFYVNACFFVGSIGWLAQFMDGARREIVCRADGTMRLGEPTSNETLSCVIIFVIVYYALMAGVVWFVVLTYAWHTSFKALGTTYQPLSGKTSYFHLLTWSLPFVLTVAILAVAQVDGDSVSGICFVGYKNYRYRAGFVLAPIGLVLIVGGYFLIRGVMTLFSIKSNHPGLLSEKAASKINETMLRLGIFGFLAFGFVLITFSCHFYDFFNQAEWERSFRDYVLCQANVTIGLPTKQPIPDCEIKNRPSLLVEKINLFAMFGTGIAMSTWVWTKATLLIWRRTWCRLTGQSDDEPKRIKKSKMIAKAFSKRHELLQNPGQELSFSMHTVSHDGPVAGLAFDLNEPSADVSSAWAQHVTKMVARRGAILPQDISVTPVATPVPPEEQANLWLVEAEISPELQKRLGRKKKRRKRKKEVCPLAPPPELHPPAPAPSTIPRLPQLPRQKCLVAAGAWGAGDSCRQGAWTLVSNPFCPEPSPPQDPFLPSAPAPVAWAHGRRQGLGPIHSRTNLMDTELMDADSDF

Protein smoothened [2] = biological target: T1, Protein smoothened; experiment: Inhibition of Bodipy-labelled cyclopamine binding to Smo expressed in COS-1 cells at 4 uM in presence of 2% FBS after 4 to 6 hrs by FACS flow cytometric analysis; format: cell-based
Shh Light II [3] = experiment: Inhibition of Shh signaling in mouse Shh-light2 cells by Gli-dependent firefly luciferase reporter gene assay; format: functional, cell-based
[4] = Lipophilicity, log D of the compound; format: physicochemical; details: octanol/water
Cytochrome P450 2D6 = Cytochrome P450 2D6 (Homo sapiens, UniProt P10635); experiment: Inhibition of CYP2D6; format: ADME
Sequence of Cytochrome P450 2D6 (P10635 whole entry): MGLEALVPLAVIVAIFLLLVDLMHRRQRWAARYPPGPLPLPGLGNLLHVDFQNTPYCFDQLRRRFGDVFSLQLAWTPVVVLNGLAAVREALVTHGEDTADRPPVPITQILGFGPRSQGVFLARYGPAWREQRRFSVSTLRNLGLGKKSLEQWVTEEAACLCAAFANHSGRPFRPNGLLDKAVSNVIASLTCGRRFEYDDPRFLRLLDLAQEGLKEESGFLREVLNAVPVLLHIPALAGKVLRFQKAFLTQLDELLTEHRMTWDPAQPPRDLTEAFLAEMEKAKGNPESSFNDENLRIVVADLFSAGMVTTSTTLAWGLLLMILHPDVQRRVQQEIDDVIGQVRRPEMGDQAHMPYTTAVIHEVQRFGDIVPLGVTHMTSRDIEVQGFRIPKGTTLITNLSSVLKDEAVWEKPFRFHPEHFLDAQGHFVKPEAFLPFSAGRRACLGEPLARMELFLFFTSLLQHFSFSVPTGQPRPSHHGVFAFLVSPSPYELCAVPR

Cytochrome P450 2C9 = Cytochrome P450 2C9 (Homo sapiens, UniProt P11712); experiment: Inhibition of CYP2C9; format: ADME
Sequence of Cytochrome P450 2C9 (P11712 whole entry): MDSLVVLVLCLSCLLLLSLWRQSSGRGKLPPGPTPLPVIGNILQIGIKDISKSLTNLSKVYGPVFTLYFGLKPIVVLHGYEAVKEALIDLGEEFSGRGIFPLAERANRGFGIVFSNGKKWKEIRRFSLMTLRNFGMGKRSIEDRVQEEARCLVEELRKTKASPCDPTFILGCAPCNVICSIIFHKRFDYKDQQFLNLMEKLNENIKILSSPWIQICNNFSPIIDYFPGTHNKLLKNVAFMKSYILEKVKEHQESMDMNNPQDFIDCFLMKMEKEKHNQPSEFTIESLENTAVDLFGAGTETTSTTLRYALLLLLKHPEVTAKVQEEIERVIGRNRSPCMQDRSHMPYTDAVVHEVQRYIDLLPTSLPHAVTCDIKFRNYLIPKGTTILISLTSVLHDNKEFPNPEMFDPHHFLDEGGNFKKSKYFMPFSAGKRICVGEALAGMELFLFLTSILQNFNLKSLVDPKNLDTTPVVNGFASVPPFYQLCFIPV

Cytochrome P450 3A4 = Cytochrome P450 3A4 (Homo sapiens, UniProt P08684); experiment: Inhibition of CYP3A4; format: ADME
Sequence of Cytochrome P450 3A4 (P08684 whole entry): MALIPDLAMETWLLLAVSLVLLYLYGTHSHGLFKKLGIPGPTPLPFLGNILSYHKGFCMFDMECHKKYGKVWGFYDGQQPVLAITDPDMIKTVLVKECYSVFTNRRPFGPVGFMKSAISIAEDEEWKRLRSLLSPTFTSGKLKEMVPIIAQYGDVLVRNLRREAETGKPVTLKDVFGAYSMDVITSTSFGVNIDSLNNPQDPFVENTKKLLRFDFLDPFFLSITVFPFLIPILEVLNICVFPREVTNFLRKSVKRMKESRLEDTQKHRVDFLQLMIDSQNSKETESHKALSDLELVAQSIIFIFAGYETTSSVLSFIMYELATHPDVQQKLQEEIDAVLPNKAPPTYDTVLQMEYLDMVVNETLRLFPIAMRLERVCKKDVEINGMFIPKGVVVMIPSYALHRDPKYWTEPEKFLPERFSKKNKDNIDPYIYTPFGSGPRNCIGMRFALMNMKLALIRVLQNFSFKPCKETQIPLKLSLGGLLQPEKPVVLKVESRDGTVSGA

Protein smoothened [5] = biological target: T1, Protein smoothened; experiment: Inhibition of Bodipy-labelled cyclopamine binding to Smo expressed in COS-1 cells in presence of 20% NHS after 4 to 6 hrs by FACS flow cytometric analysis; format: cell-based
[6] = biological target: Potassium voltage-gated channel subfamily H member 2 (hERG), Homo sapiens; experiment: Inhibition of human ERG
Protein smoothened [7] = biological target: T1, Protein smoothened; experiment: Inhibition of Bodipy-labelled cyclopamine binding to Smo expressed in COS-1 cells at 2 uM in presence of 2% FBS after 4 to 6 hrs by FACS flow cytometric analysis; format: cell-based
Protein smoothened [8] = biological target: T1, Protein smoothened; experiment: Inhibition of Bodipy-labelled cyclopamine binding to Smo expressed in COS-1 cells at 2.5 uM in presence of 2% FBS after 4 to 6 hrs by FACS flow cytometric analysis; format: cell-based
[9] = Intrinsic clearance in rat liver microsomes assessed per mg of protein; format: ADME, Microsome
[10] = Intrinsic clearance in human liver microsomes assessed per mg of protein; format: ADME, Microsome
[11] = Clearance in rat; format: ADME, organism-based; details: in vivo
[12] = Terminal half life in rat; format: ADME, organism-based; details: in vivo, read-out: beta t1/2 (converted)
[13] = Clearance in dog; format: ADME, organism-based, Canis lupus familiaris; details: in vivo
[14] = Half life in dog; format: ADME, organism-based, Canis lupus familiaris; details: in vivo
[15] = Inhibition of cytochrome P450 at 30 uM; format: ADME
[16] = Induction of cytochrome P450 at 30 uM; format: ADME
CYP2C9 = CYP2C9 (Homo sapiens, UniProt P11712); experiment: Inhibition of CYP2C9 at 10 uM; format: ADME
Sequence of CYP2C9 (P11712 whole entry): as the sequence (P11712 whole entry) above

CYP3A4 = CYP3A4 (Homo sapiens, UniProt P08684); experiment: Inhibition of CYP3A4 at 10 uM; format: ADME
Sequence of CYP3A4 (P08684 whole entry): as the sequence (P08684 whole entry) above

[17] = Intrinsic clearance in dog liver microsomes assessed per mg of protein; format: ADME, Canis lupus familiaris, Microsome
[18] = Oral bioavailability in rat; format: ADME, organism-based; details: in vivo
Shh Light II [19] = experiment: Inhibition of Shh signaling in mouse Shh-light2 cells at 10 uM by Gli-dependent firefly luciferase reporter gene assay; format: functional
Protein smoothened [20] = biological target: T1, Protein smoothened; experiment: Inhibition of Bodipy-labelled cyclopamine binding to Smo expressed in COS-1 cells at 10 uM in presence of 2% FBS after 4 to 6 hrs by FACS flow cytometric analysis; format: cell-based
Shh Light II [21] = experiment: Inhibition of Shh signaling in mouse Shh-light2 cells at 20 uM by Gli-dependent firefly luciferase reporter gene assay; format: functional
[22] = Fraction unbound in rat plasma; format: ADME, cell-free
[23] = Fraction unbound in human plasma; format: ADME, cell-free
[24] = tested on: Potassium voltage-gated channel subfamily H member 2 (hERG), Homo sapiens; experiment: Inhibition of human ERG at 10 uM
Protein smoothened [25] = biological target: T1, Protein smoothened; experiment: Inhibition of Bodipy-labelled cyclopamine binding to Smo expressed in COS-1 cells at 25 uM in presence of 20% NHS after 4 to 6 hrs by FACS flow cytometric analysis; format: cell-based

## COc1ccc(NC(=O)N2CCC(c3nc(-c4ccc5ccccc5n4)no3)CC2)cc1
Protein smoothened [1]
  IC50: > 2500 nM
Protein smoothened [2]
  inhibition: 68%

## O=C(Nc1ccccc1Cl)N1CCN(c2nc(-c3ccc4ccccc4n3)no2)CC1
Shh Light II [3]
  IC50: 140 nM
Protein smoothened [1]
  IC50: 170 nM
[4]
  logD: 2.95
Cytochrome P450 2D6
  IC50: > 25000 nM
Cytochrome P450 2C9
  IC50: > 25000 nM
Cytochrome P450 3A4
  IC50: > 25000 nM
Protein smoothened [5]
  IC50: 700 nM
[6]
  IC50: 12000 nM

## COc1ccccc1NC(=O)N1CCC(c2nc(-c3ncccc3C)no2)CC1
Protein smoothened [7]
  inhibition: 51%

## Cc1cccnc1-c1noc(C2CCN(C(=O)Nc3ccccc3Cl)CC2)n1
Protein smoothened [8]
  inhibition: 63%

## O=C(NC1CCC(F)(F)CC1)N1CCN(c2nc(-c3ccc4ccccc4n3)no2)CC1
Shh Light II [3]
  IC50: 5 nM
[9]
  microsomal CLint: 61 µL/min/mg
[10]
  microsomal CLint: 8 µL/min/mg
[11]
  clearance: 32 mL/min/kg
[4]
  logD: 2.67
Protein smoothened [5]
  IC50: 39 nM
[12]
  half-life: 1.3 h
[13]
  clearance: 20 mL/min/kg
[14]
  half-life: 1.1 h
[15]
  inhibition (INH): Not Active
[16]
  Activity: Not Active

## Cn1c(-c2noc(C3CCN(C(=O)Nc4ccccc4Cl)CC3)n2)nc2ccccc21
Shh Light II [3]
  IC50: 430 nM
Protein smoothened [1]
  IC50: 1000 nM
[9]
  microsomal CLint: 174 µL/min/mg
[4]
  logD: 2.85
CYP2C9
  inhibition at 10 µM: 44%
CYP3A4
  inhibition at 10 µM: 35%
Protein smoothened [5]
  IC50: 4500 nM

## O=C(NC1CCCCC1)N1CCN(c2nc(-c3ccc4ccccc4n3)no2)CC1
Shh Light II [3]
  IC50: 53 nM
Protein smoothened [1]
  IC50: 45 nM
[9]
  microsomal CLint: 189 µL/min/mg
[17]
  microsomal CLint: 54 µL/min/mg
[10]
  microsomal CLint: 60 µL/min/mg
[11]
  clearance: 54 mL/min/kg
[4]
  logD: 2.76
[18]
  bioavailability: 24%
Protein smoothened [5]
  IC50: 180 nM
[12]
  half-life: 1.1 h
[13]
  clearance: 16 mL/min/kg
[14]
  half-life: 1.4 h
[15]
  inhibition (INH): Not Active
[16]
  Activity: Not Active
[6]
  IC50: > 30000 nM

## COc1ccccc1NC(=O)N1CCC(c2nc(-c3ccc4ccccc4n3)no2)C1 (stereo not drawn)
Shh Light II [19]
  inhibition at 10 µM: 15%
Protein smoothened [20]
  inhibition: 38%

## COc1ccccc1NC(=O)N1CC(c2nc(-c3ccc4ccccc4n3)no2)C1
Shh Light II [19]
  inhibition at 10 µM: 28%
Protein smoothened [20]
  inhibition: 39%

## COc1ccccc1NC(=O)N1CCC(c2nnc(-c3ccc4ccccc4n3)o2)CC1
Protein smoothened [1]
  IC50: 4700 nM
Shh Light II [21]
  inhibition at 20 µM: 57%

## O=C(Nc1ccccc1Cl)N1CCC(c2nc(-c3ccc4ccccc4n3)no2)CC1
Shh Light II [3]
  IC50: 510 nM
Protein smoothened [1]
  IC50: 380 nM
[9]
  microsomal CLint: > 200 µL/min/mg
[17]
  microsomal CLint: 65 µL/min/mg
[10]
  microsomal CLint: 45 µL/min/mg
[11]
  clearance: 11 mL/min/kg
[4]
  logD: 4.25
[22]
  fraction unbound: 0.01
[23]
  fraction unbound: 0.005
[18]
  bioavailability: 38%
CYP2C9
  inhibition at 10 µM: 62%
CYP3A4
  inhibition at 10 µM: 58%
Protein smoothened [5]
  IC50: 3500 nM
[24]
  inhibition: 62%

## O=C(NC1CCC(O)CC1)N1CCC(c2nc(-c3ccc4ccccc4n3)no2)CC1 (stereo not drawn)
Shh Light II [3]
  IC50: 2700 nM
Protein smoothened [1]
  IC50: 2500 nM
Protein smoothened [25]
  inhibition: 65%
